Reference: patent US7160733B2, “Ligand specific to β2-glycoprotein I and use thereof” (priority 2001, dated 2007)

T1: β2-GPI (Homo sapiens, UniProt P02749)
T1 construct: β2-GPI was purified from normal human plasma as described in [35] with slight modification; from tissue; host or cells: pooled normal human plasma from healthy subjects
T1 sequence (P02749 20-345): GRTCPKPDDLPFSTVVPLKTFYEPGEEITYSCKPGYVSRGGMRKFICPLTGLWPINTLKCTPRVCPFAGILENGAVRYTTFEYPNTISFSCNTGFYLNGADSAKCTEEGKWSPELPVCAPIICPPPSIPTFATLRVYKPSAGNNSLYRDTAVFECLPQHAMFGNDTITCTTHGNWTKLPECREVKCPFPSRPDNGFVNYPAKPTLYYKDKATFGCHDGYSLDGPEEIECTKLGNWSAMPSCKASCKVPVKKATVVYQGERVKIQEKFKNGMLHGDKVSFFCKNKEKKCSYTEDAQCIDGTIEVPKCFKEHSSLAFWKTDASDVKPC

B1: Ovalbumin: control protein added in Experiment 2 (protein, UniProt P01012 2-386, looked up)
Ovalbumin: GSIGAASMEFCFDVFKELKVHHANENIFYCPIAIMSALAMVYLGAKDSTRTQINKVVRFDKLPGFGDSIEAQCGTSVNVHSSLRDILNQITKPNDVYSFSLASRLYAEERYPILPEYLQCVKELYRGGLEPINFQTAADQARELINSWVESQTNGIIRNVLQPSSVDSQTAMVLVNAIVFKGLWEKAFKDEDTQAMPFRVTEQESKPVQMMYQIGLFRVASMASEKMKILELPFASGTMSMLVLLPDEVSGLEQLESIINFEKLTEWTSSNVMEERKIKVYLPRMKMEEKYNLTSVLMAMGITDVFSSSANLSGISSAESLKISQAVHAAHAEINEAGREVVGSAEAGVDAASVSEEFRADHPFLFCIKHIATNAVLFFGRCVSP
B2: β2-GPI: β2-Glycoprotein I purified from normal human plasma (protein, UniProt P02749 20-345, looked up)
Beta-2-glycoprotein 1: T1 sequence (P02749 20-345)

What was measured:
EY2C9 = assay: ELISA on solid-phase lipid (ligand)-coated plate: EY2C9 binding in presence of β2-GPI; set-up: species or system human; conditions: for EY2C9 binding, No treatment: absorbance at 490 nm, mean ± SD (n = 3), solid-phase ligand not methylated; for Binding of protein-dependent oxLig-1 antibody, EY2C9: Experiment 2, synthesized oxLig-1-solidified plate, added protein 15 μg/mL
Method: (§1) Binding to extracted lipids: A microtiter plate (Immulon 1B, Dynex Technologies Inc.) was coated with lipids extracted from LDLs (50 μg/mL, 50 μL/well) by ethanol evaporation. The wells were blocked with PBS containing 1% BSA for one hour and the wells were incubated with 30 μg/mL of β2-GPI for one hour. Then, β2-GPI binding was detected using Cof-22 and HRP-labeled anti-mouse IgG antibodies. Alternatively, an anti-β2-GPI autoantibody (Cof-22, WB-CAL-1, or EY2C9) was diluted with a 0.3% BSA-containing PBS, and the diluted antibody was added to the coated plate (1.0 μg/mL, 100 μL/well) and incubated with β2-GPI (15 μg/mL) for one hour. The binding of the antibody was detected by an HRP-labeled anti-mouse IgG /or an anti-human IgM. The color was developed with H2O2 and o-phenylenediamine, and OD was measured at 490 nm. Between these steps, extensive washing were done using PBS containing 0.05% Tween 20.
(§2) Synthesized oxLig-1 (50 μg/mL, 50 μL/well) was adsorbed by evaporation on a polystyrene plate (Immulon 1B; Dynex Technologies Inc.), and the plate was then blocked with 1% BSA. Serum samples (diluted 1:100 with PBS containing 0.3% BSA) were incubated in the wells with β2-GPI (15 μg/mL) or other proteins for one hour at room temperature. Antibody binding was detected with HRP-labeled anti-human IgG. Further steps were performed through a method as described in “anti-β2-GPI ELISA.”
(§3) CL (50 μg/mL, 50 μL/well) was adsorbed on a polystyrene plate (Immulon 1B), and further steps were performed through a method as described in “ELISA for antibodies against a protein-oxLig-1 complex.”

β2-GPI [1] = molecular target: T1, β2-GPI; assay: ELISA on solid-phase lipid (ligand)-coated plate: β2-GPI binding detected with Cof-22; conditions: for β2-GPI binding (Cof-22 binding), No treatment: absorbance at 490 nm, mean ± SD (n = 3), solid-phase ligand not methylated; for β2-GPI binding to lipid: result in words (discussion)
Method: as §1, §2, §3

anti-β2-GPI antibodies = assay: ELISA of the anti-β2-GPI antibodies by use of a ligand-coated plate (results in words); assay type: binding; conditions: ligand-coated plate, result in words
Method: as §1, §2

J774A.1 cells = assay: Liposome binding to macrophages (3H-labeled liposomes, 4° C.); assay type: cell-based, murine; conditions: result in words; for direct binding of liposomes to macrophages: J774A.1 cells, 2 hours at 4° C., 50 nmol lipid/well, without β2-GPI and antibody; for binding of liposomes to macrophages after methylation of the ligand: liposomes containing methylated ligand, with β2-GPI and WB-CAL-1, FIGS. 20C and 20D; for uptake of ligand-containing liposomes to J774A.1 cells in the presence of both β2-GPI and WB-CAL-1: compared with cholesteryl linoleate-liposomes (control), FIG. 20
Method: FIG. 10. Effect of phosphatidylserine (PS) or oxLig-1 content on the binding of liposomes to macrophages. A monolayer of J774.A1 cells was incubated for 2 hours at 4° C. with Celgrosser-P medium containing ^3H-labeled liposomes (50 nmol lipid/well). Open circle represents PS-liposomes; closed circle represents PS-Chol-liposomes; open square represents oxLig-1-liposomes; and closed square represents oxLig-1-Chol-liposomes. Data are indicated as the mean± SD of triplicate samples.
FIG. 11. β2-GPI and anti-β2-GPI monoclonal antibody-dependent binding of ligand-containing liposomes to macrophage. A monolayer of J774.A1 cells was incubated for 2 hours at 4° C. with Celgrosser-P medium containing ^3H-labeled liposomes (50 nmol lipid/well) and WB-CAL-1, in the presence or absence of β2-GPI (200 μg/ml). • A: Binding of PS-liposomes (PS: 50 mol %,) to J774.A1. cells in the presence (closed square) or absence (open square) of β2-GPI (200 μg/ml) • B: Binding of oxLig-1-liposomes (oxLig-1: 40 mol %) to J774.A1 cells in the presence (black bar) or absence (white bar) of β2-GPI (200 μg/ml). • C: A monolayer of J774.A1 cells was incubated for 2 hours at 4° C. with Celgrosser-P medium containing ^3H-labeled synthesized oxLig-1-liposomes (50 nmol lipid/well) and WB-CAL-1, in the presence or absence of β2-GPI (200 μg/ml). Binding of synthesized oxLig-1-liposomes in the absence of β2-GPI and WB-CAL-1 (open circle), binding of synthesized oxLig-1-liposomes in the presence of β2-GPI (open square), binding of synthesized oxLig-1-liposomes in the presence of WB-CAL-1 (closed square), and binding of synthesized oxLig-1-liposomes in the presence of both β2-GPI and WB-CAL-1 (closed circle). Data are indicated as the mean ± SD of triplicate samples.
A monolayer of J774.A1 cells was incubated for 2 hours at 4° C. with Celgrosser-P medium containing [^3H]-labeled liposomes (containing a predetermined ligand, 50 nmol lipid/well). DPPS-containing liposomes (open squares), oxLig-1-containing liposomes (closed squares), oxLig-2-containing liposomes (closed circles), and 13-COOH-7KC-containing liposomes (closed triangles). Data are indicated as mean± SD of triplicate samples.
A monolayer of J774.A1 cells was incubated for 2 hours at 4° C. with Celgrosser-P medium containing [^3H]-labeled liposomes (containing a predetermined ligand (30 mmol %), 50 nmol lipid/well) and in the presence (black bars) or absence (white bars) of β2-GPI (200 μg/mL) and WB-CAL-1 ([…]).
A monolayer culture of murine macrophage-like cells (J774A.1) obtained from Riken Cell Bank (Tsukuba) was maintained in RPMI 1640 medium supplemented with 10% fetal carf serum (FCS). For binding experiments, the cells (8×10^5 cells/mL, RPMI1640) were dispensed in an amount of 1 mL/well into a 12-well culture plate (Sumitomo Bakelite Co., Ltd.) and were incubated for 24 hours at 37° C., then the culture broth was replaced with Celgrosser-P medium (Sumitomo Pharmaceutical Co.). After one hour of preincubation at 37° C., 50 μL of liposomes (50 nmol lipid/well) with or without β2-GPI (200 μg/mL) and WB-CAL-1 (100 μg/mL) were added to each culture, and the cells were incubated at 4° C. and/or 37° C. The wells were next washed with chilled PBS, and the cells were lysed by adding 1 mL of 0.1N NaOH. An aliquot was taken for determination of cellular proteins and of radioactivity associated with the cells. Protein concentration was determined in a manner as described above.

WB-CAL-1 = assay: ELISA on solid-phase lipid (ligand)-coated plate: WB-CAL-1 binding in presence of β2-GPI; set-up: species or system mouse; conditions: for WB-CAL-1 binding, No treatment: absorbance at 490 nm, mean ± SD (n = 3), solid-phase ligand not methylated; for Binding of protein-dependent oxLig-1 antibody, WB-CAL-1: Experiment 2, synthesized oxLig-1-solidified plate, added protein 15 μg/mL
Method: as §1, §2, §3

APS-2 = assay: ELISA on solid-phase lipid-coated plate: binding of antibodies of APS patient serum APS-2; set-up: species or system human; conditions: Absorbance, mean ± SD, n = 3; for Binding of protein-dependent oxLig-1 antibody, APS-2: Experiment 2, synthesized oxLig-1-solidified plate, added protein 15 μg/mL
Method: (§4) To eliminate endogenous β2-GPI in some experiments, serum samples were passed through a heparin-Sepharose column. The effluent was dialyzed against PBS and was used for ELISAs.
as §2, §3

APS-1 = assay: ELISA on solid-phase lipid-coated plate: binding of antibodies of APS patient serum APS-1; set-up: species or system human; conditions: Absorbance, mean ± SD, n = 3; for Binding of protein-dependent oxLig-1 antibody, APS-1: Experiment 2, synthesized oxLig-1-solidified plate, added protein 15 μg/mL
Method: as §4, §2, §3

β2-GPI [2] = assay: ELISA on solid-phase lipid (ligand)-coated plate: β2-GPI binding detected with Cof-22; set-up: species or system human; conditions: Experiment 2; Absorbance, mean ± SD, n = 3; synthesized oxLig-1-solidified plate, added protein 15 μg/mL
Method: as §1, §2, §3

[3] = Experiment 1, Absorbance, mean ± SD, n = 3, solid-phase lipid, β2-GPI 15 μg/mL
[4] = Experiment 1, solid-phase lipid, β2-GPI 15 μg/mL, serum with β2-GPI removed

Molecule | EY2C9 binding, No treatment (EY2C9) | β2-GPI binding (Cof-22 binding), No treatment (β2-GPI [1]) | β2-GPI binding to lipid (β2-GPI [1]) | binding of the anti-β2-GPI autoantibodies (WB-CAL-1 and EY2C9) to solid-phase ligand (anti-β2-GPI antibodies) | direct binding of liposomes to macrophages (J774A.1 cells) | binding of liposomes to macrophages after methylation of the ligand (J774A.1 cells) | uptake of ligand-containing liposomes to J774A.1 cells in the presence of both β2-GPI and WB-CAL-1 (J774A.1 cells) | WB-CAL-1 binding, No treatment (WB-CAL-1) | Binding of protein-dependent oxLig-1 antibody, EY2C9 (EY2C9; Absorbance, mean ± SD, n = 3) | Binding of protein-dependent oxLig-1 antibody, Cof-22 (β2-GPI [2]) | Binding of protein-dependent oxLig-1 antibody, APS-2 (APS-2) | Binding of protein-dependent oxLig-1 antibody, WB-CAL-1 (WB-CAL-1; Absorbance, mean ± SD, n = 3) | Binding of protein-dependent oxLig-1 antibody, APS-1 (APS-1) | other results
CC(C)CCC[C@@H](C)[C@H]1CC[C@H]2[C@@H]3C(=O)C=C4C[C@@H](OC(=O)CCCCCCCCCCCC(=O)O)CC[C@]4(C)[C@H]3CC[C@]12C [13-COOH-7KC, 13-oxo-13-(7-ketocholest-5-en-3β-yloxy)tridecanoic acid] | 1.062 +/− 0.040 | 1.303 +/− 0.049 | significant bonding | significant binding | relatively low or negligible small | substantially no binding | significantly enhanced | 0.336 +/− 0.027 |  |  |  |  |  | 
CCCCC/C=C\C/C=C\C/C=C\C/C=C\CCCC(=O)O[C@H](COC(=O)CCCCCCCCCCCCCCC)COP(=O)([O-])OCC[N+](C)(C)C [PAPC, 1-Palmitoyl-2-arachidonoyl-phosphatidylcholine, reference compound] |  |  |  |  |  |  |  |  |  |  |  |  |  | Binding of β2-GPI-dependent aCL, EY2C9 (EY2C9; [3]): 0.011 ± 0.003; Binding of β2-GPI-dependent aCL, Cof-22 (β2-GPI [1]; [3]): 0.019 ± 0.003; Binding of β2-GPI-dependent aCL, APS-2 (APS-2; [4]): 0.010 ± 0.002; Binding of β2-GPI-dependent aCL, WB-CAL-1 (WB-CAL-1; [3]): 0.012 ± 0.001; Binding of β2-GPI-dependent aCL, APS-1 (APS-1; [4]): 0.000 ± 0.001
CC(C)CCC[C@@H](C)[C@H]1CC[C@H]2[C@@H]3C(=O)C=C4C[C@@H](OC(=O)CCCCCCCC(=O)CCC(=O)O)CC[C@]4(C)[C@H]3CC[C@]12C [oxLig-2, 4,12-dioxo-12-(7-ketocholest-5-en-3β-yloxy)dodecanoic acid] | 1.018 +/− 0.121 | 1.002 +/− 0.084 | significant bonding | significant binding | relatively low or negligible small | substantially no binding | significantly enhanced | 0.518 +/− 0.023 |  |  |  |  |  | 
B1 |  |  |  |  |  |  |  |  | 0.004 ± 0.002 | 0.042 ± 0.001 | 0.016 ± 0.001 | 0.006 ± 0.002 | 0.009 ± 0.004 | 
B2 |  |  |  |  |  |  |  |  | 1.147 ± 0.028 | 1.007 ± 0.031 | 0.755 ± 0.024 | 0.812 ± 0.023 | 1.043 ± 0.054 | 
